Our source for the inhibition, IC50 and Activity values is ChEMBL document CHEMBL5344421, “Chemical Analysis and Antidiabetic Potential of a Decoction from Stevia serrata Roots” (J Nat Prod, 2024).

By IC50 is commonly meant the concentration that gives 50% inhibition. The low end stands for inhibition by little substance, the high end for a need for much substance.

The source made the active and inactive calls. The rule behind the calls is not given here.

The species named for test [1] is Sus scrofa. Put plainly: (§1) Inhibition of porcine pancreatic alpha-amylase measured after 40 mins by spectrophotocolorimetric enzymatic assay.
The target of test [2] is T1, Tyrosine-protein phosphatase non-receptor type 1 (Homo sapiens, UniProt P18031).
T1 sequence (P18031 whole entry): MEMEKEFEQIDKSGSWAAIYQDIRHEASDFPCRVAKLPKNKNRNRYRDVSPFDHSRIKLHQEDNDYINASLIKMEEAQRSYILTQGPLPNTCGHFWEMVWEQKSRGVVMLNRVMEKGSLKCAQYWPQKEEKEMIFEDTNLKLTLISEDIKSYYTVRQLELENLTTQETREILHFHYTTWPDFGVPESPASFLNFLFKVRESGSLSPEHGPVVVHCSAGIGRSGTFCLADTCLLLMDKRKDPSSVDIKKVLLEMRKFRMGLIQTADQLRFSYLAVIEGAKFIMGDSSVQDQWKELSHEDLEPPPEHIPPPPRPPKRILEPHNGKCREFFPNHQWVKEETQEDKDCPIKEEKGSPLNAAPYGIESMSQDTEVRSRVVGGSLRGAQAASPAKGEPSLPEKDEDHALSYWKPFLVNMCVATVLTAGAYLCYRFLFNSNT
Put plainly: Inhibition of Protein tyrosine phosphatase 1B (unknown origin) activity by spectrophotocolorimetric analysis.

The target in test [3] is T2, Pancreatic triacylglycerol lipase (Sus scrofa) (UniProt P00591).
T2 sequence (whole entry): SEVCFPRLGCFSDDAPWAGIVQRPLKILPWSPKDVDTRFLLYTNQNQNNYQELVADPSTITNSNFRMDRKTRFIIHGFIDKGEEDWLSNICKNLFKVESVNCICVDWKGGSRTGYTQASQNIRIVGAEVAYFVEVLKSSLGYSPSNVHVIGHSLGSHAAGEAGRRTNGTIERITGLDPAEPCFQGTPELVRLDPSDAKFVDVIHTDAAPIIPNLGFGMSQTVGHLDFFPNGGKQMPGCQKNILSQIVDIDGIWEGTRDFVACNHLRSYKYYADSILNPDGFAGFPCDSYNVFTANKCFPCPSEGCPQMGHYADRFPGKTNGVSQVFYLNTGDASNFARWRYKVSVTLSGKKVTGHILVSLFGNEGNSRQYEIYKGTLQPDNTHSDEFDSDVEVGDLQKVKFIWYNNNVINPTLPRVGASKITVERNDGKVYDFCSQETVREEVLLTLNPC
Put plainly: Inhibition of porcine pancreatic lipase measured after 40 mins by spectrophotocolorimetric enzymatic assay.

Test [4] has as its system Mus musculus. Put plainly: Hypoglycemic effect in normoglycemic mouse assessed as decrease in blood glucose level at 5 to 50 mg/kg, po measured upto 5 hrs after administration. In kind it is functional, organism-based. The note with it: dose 5-50 mg/kg.
In test [5] the test system is Mus musculus. Put plainly: Antihyperglycemic activity in normoglycemic mouse assessed as decrease in at 50 mg/kg, po measured upto 120 min after administration by oral glucose tolerance test. Type of test: functional, organism-based.
Test [6] relates to Mus musculus. Put plainly: Antihyperglycemic activity in STZ-hyperglycemic mouse assessed as decrease in blood glucose level at 150 mg/kg, po measured upto 5 hrs after administration. In kind it is functional, organism-based.
The test system of test [7] is Mus musculus. Put plainly: Antihyperglycemic activity in STZ-induced hyperglycemic CD1 mouse model assessed as reduction in blood glucose AUC at 50 mg/kg, ip measured upto 120 min intraperitoneal by insulin tolerance test. Type of test: functional, organism-based.
In test [8] the test system is Mus musculus. Put plainly: Antihyperglycemic activity in STZ-hyperglycemic mouse assessed as decrease in at 50 mg/kg, po measured upto 120 min after administration by oral glucose tolerance test. In kind it is functional, organism-based.
The nature of test [9]: as §1. Also noted: species or system Sus scrofa.

For the molecule `C=C1[C@@H]2CC[C@H]3[C@]4(C)CCC[C@@](C)(C(=O)O[C@@H]5O[C@H](CO)[C@@H](O[C@@H]6OC[C@H](O)[C@H](O)[C@H]6O)[C@H](OC(C)=O)[C@H]5OC(C)=O)[C@H]4CC[C@]3(C2)[C@H]1O[C@@H]1O[C@H](CO)[C@@H](O)[C@H](O)[C@H]1O`, the inhibition entry in test [1] and in [3] was “inactive” each time. In [2], the IC50 turned out to be 928 µM.
`C=C1C[C@@]23CC[C@H]4[C@@](C)(CCC[C@@]4(C)C(=O)O[C@@H]4O[C@H](CO)[C@@H](O[C@@H]5OC[C@H](O)[C@H](O)[C@H]5O)[C@H](OC(C)=O)[C@H]4OC(C)=O)[C@@H]2[C@@H](O)[C@@H]1C(=O)C3`: the outcome in test [4], in test [5], in test [6], in test [7] and in [8] was Active. The inhibition result in [1] and in [3] was “inactive” throughout. Also, in test [2], inhibition was half-maximal at 527 µM (IC50).
In the case of `CC(=O)O[C@@H]1CC[C@]2(C)[C@H]3CCC4=C([C@@H](C)CCC=C(C)C)CC[C@@]4(C)[C@]3(C)CC[C@H]2C1(C)C`, the inhibition entry in [1] and in [3] was “inactive” throughout. This molecule also returned an IC50 in test [2] of 1180 µM.
Consider `CC(=O)O[C@@H]1[C@@H](OC(C)=O)[C@H](OC(=O)[C@]2(C)CCC[C@@]3(C)[C@@H]4[C@@H](O)C[C@@H]5C[C@@]4(CC[C@@H]32)C[C@@]5(O)CO)O[C@H](CO)[C@H]1O[C@@H]1OC[C@H](O)[C@H](O)[C@H]1O`, for which the inhibition entry in test [1] and in [3] was “inactive” in each case. The molecule further registered an IC50 in test [2] of 31.8 µM.
`CC(=O)O[C@@H]1[C@@H](OC(C)=O)[C@H](OC(=O)[C@]2(C)CCC[C@@]3(C)[C@@H]4[C@@H](O)[C@@H]5C(=O)C[C@]4(C=C5C)CC[C@@H]32)O[C@H](CO)[C@H]1O[C@@H]1OC[C@H](O)[C@H](O)[C@H]1O`: the inhibition result in test [1] and in test [3] was “inactive” each time. Besides, the IC50 in [2] was determined as 532 µM.
As to `C[C@H]1O[C@H](O[C@H]2[C@H](O)[C@@H](O)[C@@H](O[C@H]3[C@H](O)[C@@H](O)C(O)O[C@@H]3CO)O[C@@H]2CO)[C@H](O)[C@@H](O)[C@@H]1N[C@H]1C=C(CO)[C@@H](O)[C@H](O)[C@H]1O` (stereo partly specified) [ACARBOSE], in test [9], the IC50 is 3.2 µM.
